Values of other authors in patent US6488942B1, “Disinfecting agent” (DDG Dental Devices GmbH, priority 1997, dated 2002).

solubility in water: soluble in water
Compound: CC(=O)O.CC(=O)O.NC(=N\CCCCCC/N=C(N)/N=C(\N)Nc1ccc(Cl)cc1)/N=C(\N)Nc1ccc(Cl)cc1 [diacetate, Chlorhexidine diacetate]
